Experiments:
[1] = molecular target: T1, dopamine beta-hydroxylase (Bos taurus, UniProt P15101); test: in vitro DBH inhibition (conversion of tyramine to octopamine; oxygen uptake by polarographic electrode); format: biochemical; details: pH of 5, 37° C. preferably
T1 sequence (P15101 1-610): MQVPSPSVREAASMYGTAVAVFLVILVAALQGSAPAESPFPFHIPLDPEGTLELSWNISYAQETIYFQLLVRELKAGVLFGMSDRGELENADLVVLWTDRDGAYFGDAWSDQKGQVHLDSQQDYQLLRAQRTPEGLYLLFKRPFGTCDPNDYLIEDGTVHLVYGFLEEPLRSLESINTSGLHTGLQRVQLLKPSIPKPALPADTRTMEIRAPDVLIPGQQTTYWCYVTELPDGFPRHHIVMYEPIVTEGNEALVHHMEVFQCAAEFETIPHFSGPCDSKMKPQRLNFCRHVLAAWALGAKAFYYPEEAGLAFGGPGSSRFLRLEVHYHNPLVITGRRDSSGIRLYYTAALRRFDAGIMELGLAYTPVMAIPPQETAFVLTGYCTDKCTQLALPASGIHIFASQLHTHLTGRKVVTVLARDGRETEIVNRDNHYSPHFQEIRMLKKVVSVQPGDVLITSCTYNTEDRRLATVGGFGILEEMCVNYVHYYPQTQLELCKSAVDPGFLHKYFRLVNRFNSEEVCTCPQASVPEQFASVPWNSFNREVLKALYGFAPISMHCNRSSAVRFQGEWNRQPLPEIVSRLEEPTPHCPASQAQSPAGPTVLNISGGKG
Protocol: The DBH inhibitory properties of the compounds of this invention can readily be determined in vitro by standard and well known procedures for assaying conversion of tyramine to octopamine in the presence of dopamine beta-hydroxylase. Enzymatic oxygenation by DBH is determined in aqueous solution in the presence of molecular oxygen, an electron donor such as ascorbate, and the necessary cofactors for the enzyme at pH of 5 and a temperature of 20°-40° C., preferably 37° C. The test compound is added at the desired concentration, and the system is incubated. Activity is measured by measuring the oxygen uptake using a polarographic electrode and an oxygen monitor by the method of S. May, et al., J. Biol. Chem. 256, 2258 (1981). Inhibition is given in molar concentration of compound at which DBH activity was halved (IC50) when the test compounds were tested according to the above described procedure. The IC50 (expressed in micromolar units) data of some of the compounds of this invention are expressed in Table I.

[2] = system: spontaneously hypertensive rats; test: antihypertensive effect: blood pressure monitored continuously in spontaneously hypertensive rats after ip dosing; format: in vivo; details: 50 mg/kg, 6 hours post dose in SHR, Mean Difference ± Standard Deviation
Protocol: The ability of the compounds of this invention to lower blood pressure can be determined in vivo using spontaneously hypertensive rats (SHR'S) according to standard and well known procedures. The test compound is administered intraperitoneally (ip) to rats and the blood pressure monitored continuously. Snce DBH is a major enzyme in the synthetic pathway of the catecholamines, it would be expected that the presence of an inhibitor would act to decrease the amount of catecholamines produced, and thereby have an antihypertensive effect. The results of the testing for this antihypertensive effect are shown in Table I (MBP is mean blood pressure).
In Vivo at 50 mg/kg, IP, 6 Hours Post Dose in SHR's*

SMILES | IC50 [1] [µM] | Max Change MBP (mean blood pressure) [2] [mmHg]
NC(=S)c1nccn1Cc1cccs1 [Compound 2, 1-(2-Thienylmethyl)-2-thiocarbamyl-1H-imidazole] | 4.7 | -25 ± 12
NCc1nccn1Cc1cccs1 [Compound 1, 2-Aminomethyl-1-(2-thienylmethyl)-1H-imidazole] | 12.8 | -41 ± 14

From patent US4810800A, “Novel imidazole dopamine beta hydroxylase inhibitors” (Merrell Dow Pharmaceuticals Inc., priority 1988, dated 1989)
